According to patent publication US20240285557A1, “PHARMACEUTICAL COMPOSITION COMPRISING LIPASE INHIBITOR FOR TREATMENT OR TREATMENT OF RNA VIRAL INFECTIONS” (priority 2021, published 2024):
Several values for one entry are separate records, joined by “and”; a condition that tells them apart may be missing. Equal values may be shown once. Read-outs that look alike come from different tables or passages of the source.

What was measured:
[1] = test system: Porcine epidemic diarrhea coronavirus (QIAP1401); details: for IC50: Vero E6 cells, MOI 0.01 ffu/cell, drug added after 18 hours, additional 18 hours
[2] = test system: Bovine coronavirus (KWD20); details: for SI (CC50/IC50): Bovine coronavirus (KWD20); for IC50: HRT-18G cells, MOI 0.01 ffu/cell, drug added after 18 hours, additional 18 hours
[3] = test system: Porcine sapovirus (Cowden); details: for SI (CC50/IC50): Porcine sapovirus (Cowden); for IC50: LLC-PK cells, MOI 0.01 ffu/cell, drug added after 18 hours, additional 18 hours
[4] = test system: influenza A virus PR8 strain; test: Proliferation of influenza A virus in MRC-5, NCI-H293, WI-38, and Calu-3 cells; assay type: cell-based; details: MRC-5, NCI-H293, WI-38, Calu-3 cells; 1, 10, 20 μM; vs solvent (vehicle)
[5] = test system: Porcine respiratory reproductive syndrome virus (LMY); details: for SI (CC50/IC50): Porcine respiratory reproductive syndrome virus (LMY); for IC50: MARC-145 cells, MOI 0.01 ffu/cell, drug added after 18 hours, additional 18 hours
[6] = test system: SARS-COV-2, IAV, BCOV, PEDV, RVA, PRRSV, and PSaV; test: Viral genome copy (real-time PCR) and progeny virus production in cells infected with seven RNA viruses; assay type: cell-based; details: 1, 10, and 20 μM; dose-dependent, all seven viruses
Text: Subsequently, each well was washed three times with phosphate-buffered saline, followed by the addition of the respective viral culture media.
Subsequently, each plate underwent three cycles of freezing and thawing to detach the cells from each well for subsequent experiments.
To analyze the inhibitory effects of atglistatin and CAY10499 on the genome copies of each virus, RNA was extracted using the RNeasy mini kit (Qiagen). The extracted RNA was then used to synthesize cDNA using the TOPscript™ cDNA Synthesis kit (Enzynomics), which includes random hexamer and poly(rA)-oligo(dT). Afterward, real-time PCR was performed on the synthesized cDNA in the TOPreal™ qPCR 2× PreMix (Enzynomics) solution in the presence of specific primers for SARS-COV-2 nucleocapsid (N), influenza A virus PB1, bovine coronavirus spike (S), porcine epidemic diarrhea coronavirus nucleocapsid (N), bovine species A rotavirus VP6, porcine reproductive and respiratory syndrome virus matrix (M), and porcine sapovirus VPg, using the LineGene 9600 Plus Real-time PCR detection system (Bioer, Hangzhou, China).
To analyze the inhibitory effects of atglistatin and CAY10499 on the production of progenies of the viruses, the supernatant obtained after three cycles of freezing and thawing was serially ten-fold diluted. […] After adsorption, each well was washed twice with phosphate-buffered saline (pH 7.4), followed by the addition of the respective culture media.
Then, after removal of the supernatants, the cells were fixed with 4% paraformaldehyde for 15 minutes and each well was washed thrice with phosphate-buffered saline and treated with 0.2% Triton X-100 at 20° C. for 10 minutes.
After three washes with phosphate-buffered saline, the wells were treated with 100- to 200-fold diluted primary antibodies to the spike protein of SARS-COV-2, the nucleoprotein protein of influenza A virus, the spike protein of bovine coronavirus, the nucleocapsid protein of porcine epidemic diarrhea coronavirus, the VP6 protein of bovine species A rotavirus, the matrix protein of porcine reproductive and respiratory syndrome virus, and the VPg protein of porcine sapovirus, respectively, and applied to a refrigerator at 4° C. for 12 hours.
Subsequently, the supernatant was removed, and each well was washed thrice with phosphate-buffered saline, followed by incubation with a 100- to 200-fold dilution of a secondary antibody conjugated with Alexa Fluor 488 or fluorescein isothiocyanate at room temperature for 2 hours.
Each virus was allowed to adsorb onto the cells which were then cultured in a freshly changed medium containing DABPU-EM or DABPU-DE. Thereafter, the cells were detached from the wells for subsequent experiments.

[7] = test system: Species A Rotavirus (NCDV); details: for SI (CC50/IC50): Species A Rotavirus (NCDV); for IC50: MA104 cells, MOI 0.01 ffu/cell, drug added after 12 hours, additional 12 hours
[8] = test system: SARS-COV-2 strain KCDC03, KDCA51463, or KDCA55905; test: Proliferation of SARS-CoV-2 in various cultured cells; assay type: cell-based; details: Vero E6, Caco-2, Calu-3 cells (FIGS. 21a to 21f); vs solvent (vehicle)
[9] = test system: Influenza A virus (H1N1) (PR8)
[10] = test system: influenza A virus PR8 strain; test: Influenza A virus-infected mice treated with lipase inhibitor; assay type: in vivo, C57BL/6J mice; details: for survival rate: 15 days observation; for free fatty acids and glycerol concentrations in lung tissues / progeny virus numbers in lung tissues / virus gene numbers in lung tissues: 5 mg/kg/day for 4 days, sixth day post-infection; for lung lesions, including interstitial pneumonia, and number of virus-positive cells / number of lipid droplets in bronchiolar epithelial cells / viral antigen in the bronchiolar epithelial cells: 5 mg/kg/day, vs untreated virus-inoculated group; for survival rate, weight loss, and clinical symptoms: 0.01 to 10 mg/kg/day, dose-dependent
Method: For use in verifying the antiviral effect of lipase inhibition in animals infected with influenza A virus, 150 mg/ml of atglistatin and 150 mg/ml of CAY10499 were dissolved in DMSO. To evaluate the antiviral effect depending on the concentration, the drugs were prepared at concentrations of 1.000, 0.500, 0.100, 0.010, and 0.001 mg/ml. […] The drugs were completely dissolved by vortexing.
For evaluating the antiviral efficacy of CAY10499, mouse groups were prepared in the same manner with the exception of using CAY10499 instead of atglistatin.
Influenza A virus inoculation was carried out on anesthetized mice via an intranasal route at 1,000 PFU per mouse, following the same procedure as above. In cases where the virus was not injected, only phosphate-buffered saline was administered. Observations were made for 15 days, during which survival rates, body weight, and clinical symptoms were monitored and recorded daily. […] Drug treatment began two days after the inoculation of influenza A virus.
The survival rate, which was 100% with a 0% mortality rate on day 0 of the infection, was measured daily over 15 days, and compared with the survival rate of the virus-injected and untreated group. Statistical significance was analyzed using the Log Rank Test, with a p value of 0.05 or […] considered significant.
Each group consisted of four seven-week-old female wild-type C57BL/6J mice, acclimatized for one week, and used in the experiment at eight weeks of age.
Mice were inoculated with influenza A virus PR8 strain in the same manner as described above, and drug treatment was conducted for 4 days, starting from the second day post-infection. On the sixth day post-infection, the mice were euthanized for autopsy.
These tissues were assayed for free fatty acid levels.
To evaluate lipid droplets and influenza A virus antigen in the lung tissues, the fixed tissues were prepared into 3-μm-thick frozen sections. […] After washing, the sections were mounted with Slow-Fade Gold antifade reagent for nucleus staining.
The sections were then finely cut at 3 μm thickness, deparaffinized in xylene, and rehydrated through graded alcohols and water. […] Histological examination was then performed using an optical microscope.
Immunohistochemistry was performed for influenza A virus antigens in the lung tissue.

SARS-CoV-2 (KCDC03) = test: Half-maximal viral inhibitory concentration (IC50), immunofluorescence of virus-positive cells; details: for SI (CC50/IC50): SARS-CoV-2 (KCDC03); for IC50: Vero E6 cells, MOI 0.01 ffu/cell, drug added after 18 hours, additional 18 hours
[11] = test system: bovine species A rotavirus NCDV strain; test: Viral antigen expression (Western blot, immunofluorescence) in infected MA104 cells; assay type: cell-based; details: rotavirus VP6 protein, 1, 10, 20 μM
[12] = Porcine epidemic diarrhea coronavirus (QIAP1401)
[13] = 5 mg kg^−1 day^−1 intraperitoneally for four days from day 2 post infection
[14] = 10 mg kg^−1 day^−1 intraperitoneally for four days from day 2 post infection, control 100% mortality

Compound | SI (CC50/IC50) [1, 12] | SI (CC50/IC50) [2] | SI (CC50/IC50) [3] | progeny virus number [4] | viral genome copy number [4] | SI (CC50/IC50) [5] | copies of genomes of each virus [6] | production of progenies of each virus [6] | SI (CC50/IC50) [7] | number of viral genome copies [8] | free fatty acids and glycerol concentrations in lung tissues [10] | progeny virus numbers in lung tissues [10] | virus gene numbers in lung tissues [10] | lung lesions, including interstitial pneumonia, and number of virus-positive cells [10] | number of lipid droplets in bronchiolar epithelial cells [10] | viral antigen in the bronchiolar epithelial cells [10] | survival rate [10, 14] | survival rate, weight loss, and clinical symptoms [10] | SI (CC50/IC50) (SARS-CoV-2 (KCDC03)) | IC50 (SARS-CoV-2 (KCDC03)) | other results
CN(C)C(=O)Nc1cccc(-c2ccc(N(C)C)cc2)c1 [Atglistatin, 3-(4′-(dimethylamino)-(1,1′-biphenyl)-3-yl)-1,1-dimethylurea] | 116 | 152 | 72 | significantly reduced | significantly reduced | 84 | reduced | reduced | 32 | significantly reduced | significant decrease | significant decrease | significant decrease | alleviation and reduction | did not decrease significantly | significant reduction | 60% and 62.5% | improvement | 154 | 1470 nM | SI (CC50/IC50) ([9]; Influenza A virus (H1N1) (PR8)): 251; survival rate [10, 13]: 62.5%
COc1nn(-c2ccc(NC(=O)OCc3ccccc3)c(C)c2)c(=O)o1 [CAY10499] |  | 11 | 8 |  |  | 21 | reduced | reduced | 4 |  | significant decrease | significant decrease | significant decrease | alleviation and reduction | did not decrease significantly | significant reduction | 50% | improvement | 62 | 1540 nM | SI (CC50/IC50) [1]: 30; IC50 [1]: 3190 nM; IC50 [2]: 7300 nM; IC50 [3]: 11800 nM; IC50 [5]: 4210 nM; IC50 [7]: 20800 nM; IC50 [9]: 4130 nM; SI (CC50/IC50) [9]: 27
CCN(CC)C(=O)Nc1cccc(-c2ccc(N(C)C)cc2)c1 [DABPU-DE] | 128 | 158 | 81 | significantly reduced | significantly reduced | 95 | reduced | reduced | 36 | significantly reduced | significantly reduced | significantly reduced | significantly reduced | alleviation and reduction | no significant decrease | significantly decreasing | 68.8% | improvement | 185 | 1200 nM | IC50 [1]: 1620 nM; IC50 [2]: 1120 nM; IC50 [3]: 2770 nM; expression levels of the viral antigen in infected cells [11]: higher inhibitory effects of DABPU-DE than DABPU-EM; IC50 [5]: 2290 nM; IC50 [7]: 5220 nM; SI (CC50/IC50) ([9]; Influenza A virus (H1N1) (PR8)): 207; IC50 ([9]; […], drug added after 12 hours, additional 12 hours): 1030 nM; survival rate [10, 13]: 68.8%
